Experimental data as given in patent US12653191B2, “Active compound combinations” (Bayer Aktiengesellschaft, priority 2020, dated 2026).
Values joined by “and” are separate entries in the source; they are usually repeats but may differ in a detail not shown here. Equal entries are not always repeated. Where two headings read alike, the source gives them in different places.

Assays:
[1] = tested on: Alternaria alternate; assay: in vitro-Test with fungal microorganisms, Method A (tables A1-A12); type: cell-based, Alternaria alternata; conditions: Alternaria, applied alone, read-out: Efficacy %
In short: (§1)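 Compound was dried into wells and overlaid with liquid potato dextrose medium containing spores or mycelium of the fungus. Plates were held at 20° C and 85% RH, and growth was read as extinction at 620 nm after 3–5 days. Efficacy is relative to the untreated control (0% = control growth, 100% = no growth).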

[2] = tested on: Alternaria alternata; assay: in vitro-Test with fungal microorganisms, Method B (tables A13-A22); type: cell-based
In short: (§2)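 Efficacy scale: 0% means growth equal to the untreated control, 100% means none detected. Compounds are dried from methanol with emulsifier before adding inoculated growth medium; incubation at 20° C., 85% relative humidity for 3 to 7 days precedes photometric inhibition readout.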

[3] = tested on: Botrytis cinerea; assay: in vitro-Test with fungal microorganisms, Method A (tables B1-B14); type: cell-based
In short: as §1

[4] = tested on: Botrytis cinerea; assay: in vitro-Test with fungal microorganisms, Method B (tables B15-B18); type: cell-based
In short: as §2

[5] = tested on: Cercospora beticola; assay: in vitro-Test with fungal microorganisms, Method A (tables C1-C10); type: cell-based; conditions: for inhibition of growth at 0.8 ppm / inhibition of growth at 4 ppm: Cercospora beticola, read-out: Efficacy %
In short: as §1

[6] = tested on: Colletotrichum lindemuthianum; assay: in vitro-Test with fungal microorganisms, Method A (tables D1-D8); type: cell-based
In short: as §1

[7] = tested on: Cordana musae; assay: in vitro-Test with fungal microorganisms, Method A (tables E1-E8); type: cell-based; conditions: for inhibition of growth at 4 ppm / inhibition of growth at 20 ppm: Neocordana musae, read-out: Efficacy %
In short: as §1

[8] = tested on: Cordana musae; assay: in vitro-Test with fungal microorganisms, Method B (tables E9-E16); type: cell-based; conditions: single active
In short: as §2

[9] = tested on: Diaporthe citri; assay: in vitro-Test with fungal microorganisms, Method A (tables F1-F11); type: cell-based
In short: as §1

[10] = tested on: Fusarium culmorum; assay: in vitro-Test with fungal microorganisms, Method B (tables G5-G15); type: cell-based
In short: as §2

[11] = tested on: Parastagonospora nodorum; assay: in vitro-Test with fungal microorganisms, Method A (tables H1-H4); type: cell-based
Description: Example: In Vitro-Test with Fungal Microorganisms
Wells of 96-well microtiter plates are filled with 10 μl of a preparation of test compound or compound combination in methanol+emulsifier alkylaryl-polyglycol-ether. Thereafter, the solvent is evaporated in a hood. At the next step, 100 μl of liquid potato dextrose medium is given into each well, that has been amended with an appropriate concentration of spores or mycelium suspension of the test fungus.
With the aid of a photometer, the extinction in all wells is measured at the wavelength of 620 nm.
The microtiter plates are incubated at 20° C. and 85% relative humidity. The inhibition of growth is determined again photometrically 3-5 days after the application. Efficacy is calculated in relation to the untreated control, 0% efficacy means fungal growth as high as in untreated control while 100% efficacy means no fungal growth is measured.
The data in tables A1 to A12, B1 to B14, C1 to C10, D1 to D8, E1 to E8, F1 to F11, G1 to G4, H1 to H4 and I1 to I5 were collected according to Method A. The data in tables A13 to A22, B15 to B18, C11 to C20, E9 to E16, F12 to F15, G5 to G15, H5 to H8, I6 to I11 and J1 to J11 were collected according to Method B.

[12] = tested on: Ustilago segetum var. avenae; assay: in vitro-Test with fungal microorganisms, Method B (tables I6-I11); type: cell-based; conditions: read-out: Efficacy %
In short: as §2

[13] = tested on: Colletotrichum coccodes; assay: in vitro-Test with fungal microorganisms, Method B (tables J1-J11); type: cell-based
In short: as §2

[14] = tested on: Cercospora beticola; assay: in vitro-Test with fungal microorganisms, Method B (tables C11-C20); type: cell-based; conditions: single compound, 0.8 ppm
In short: as §2

[15] = tested on: Diaporthe citri; assay: in vitro-Test with fungal microorganisms, Method B (tables F12-F15); type: cell-based; conditions: Table F14
In short: as §2

[16] = tested on: Ustilago segetum var. avenae; assay: in vitro-Test with fungal microorganisms, Method A (tables I1-I5); type: cell-based; conditions: alone
In short: as §1

[17] = Diaporthe citri, applied alone, read-out: Efficacy
[18] = Diaporthe citri, single active, read-out: Efficacy

Cc1cc(C)nc(Nc2ccccc2)n1 [(7.005) pyrimethanil, pyrimethanil]
inhibition of growth at 4 ppm ([1]; 4 ppm): 93% | inhibition of growth at 20 ppm ([1]; 20 ppm): 82% | inhibition of growth at 0.8 ppm ([2]; Alternaria alternata, 0.8 ppm, read-out: Efficacy): 96% | inhibition of growth at 0.8 ppm ([2]; Alternaria alternata, single compound, 0.8 ppm, read-out: Efficacy): 96% | inhibition of growth at 20 ppm ([2]; Alternaria alternata, single compound, 20 ppm, read-out: Efficacy): 100% | inhibition of growth at 4 ppm ([3]; Botrytis cinerea, 4.0 ppm, read-out: Efficacy): 100% | inhibition of growth at 20 ppm ([3]; Botrytis cinerea, 20.0 ppm, read-out: Efficacy): 100% | inhibition of growth at 0.8 ppm ([3]; Botrytis cinerea, alone, 0.8 ppm, read-out: Efficacy %): 100% | inhibition of growth at 4 ppm ([3]; Botrytis cinerea, alone, 4.0 ppm, read-out: Efficacy %): 100% | inhibition of growth at 20 ppm ([3]; Botrytis cinerea, alone, 20.0 ppm, read-out: Efficacy %): 100% | inhibition of growth at 0.8 ppm ([4]; Botrytis cinerea, 0.8 ppm alone, read-out: Efficacy %): 89% | inhibition of growth at 4 ppm ([4]; Botrytis cinerea, 4 ppm alone, read-out: Efficacy %): 95% | Efficacy % ([5]; 20.0 ppm): 100% | inhibition of growth at 0.8 ppm ([5]; 0.8 ppm alone): 10% | inhibition of growth at 0.8 ppm ([5]; 0.8 ppm): 20% | inhibition of growth at 4 ppm ([5]; 4.0 ppm alone): 98% | inhibition of growth at 4 ppm ([5]; 4.0 ppm): 100% | inhibition of growth at 0.8 ppm ([6]; Colletotrichum lindemuthianum, single active at 0.8 ppm, read-out: Efficacy %): 1% | inhibition of growth at 4 ppm ([6]; Colletotrichum lindemuthianum, single active at 4.0 ppm, read-out: Efficacy %): 0% | inhibition of growth at 20 ppm ([6]; Colletotrichum lindemuthianum, single active at 20.0 ppm, read-out: Efficacy %): 16% | inhibition of growth at 4 ppm ([7]; mixing partner alone): 24% | inhibition of growth at 20 ppm ([7]; mixing partner alone): 4% | inhibition of growth at 4 ppm ([7]; single substance): 0% | inhibition of growth at 20 ppm ([7]; single substance): 24% | inhibition of growth at 0.8 ppm ([8]; Neocordana musae, 0.8 ppm, read-out: Efficacy): 40% | inhibition of growth at 4 ppm [9, 17]: 97% | inhibition of growth at 20 ppm [9, 17]: 100% | inhibition of growth at 0.8 ppm ([9]; Diaporthe citri, single active, 0.8 ppm, read-out: Efficacy): 0% | inhibition of growth at 4 ppm [9, 18]: 97% | inhibition of growth at 20 ppm [9, 18]: 100% | inhibition of growth at 0.8 ppm ([10]; Fusarium culmorum, 0.8 ppm, alone, read-out: Efficacy): 5% | inhibition of growth at 0.8 ppm ([10]; Fusarium culmorum, single active compound, 0.8 ppm, read-out: Efficacy): 8% | inhibition of growth at 4 ppm ([10]; Fusarium culmorum, single active compound, 4 ppm, read-out: Efficacy): 16% | inhibition of growth at 20 ppm ([10]; Fusarium culmorum, single active compound, 20 ppm, read-out: Efficacy): 24% | Efficacy ([11]; 0.8 ppm): 100% | Efficacy ([11]; 20.0 ppm): 100% | inhibition of growth at 0.8 ppm ([12]; 0.8 ppm): 18% | inhibition of growth at 4 ppm ([12]; 4 ppm): 42% | inhibition of growth at 20 ppm ([12]; 20 ppm): 49% | inhibition of growth at 0.8 ppm ([13]; Colletotrichum coccodes, single active compound at 0.8 ppm, read-out: Efficacy %): 25%

mancozeb [(5.013) mancozeb]
Efficacy ([2]; 0.8 ppm): 4% | Efficacy ([2]; 4 ppm): 36% | Efficacy ([2]; 20 ppm): 63% | Efficacy ([3]; 0.4 ppm): 0% | Efficacy ([3]; 2.0 ppm): 0% | Efficacy ([3]; 10.0 ppm): 33% | Efficacy % ([3]; alone, 0.8 ppm): 15% | Efficacy % ([3]; alone, 4.0 ppm): 0% | Efficacy % ([3]; alone, 20.0 ppm): 15% | Efficacy % ([3]; alone, 100.0 ppm): 83% | Efficacy % ([4]; 0.8 ppm, alone): 0% and 4% | Efficacy % ([5]; 0.08 ppm): 4% and 0% | Efficacy % ([5]; 0.08 ppm alone): 0% | Efficacy % ([5]; 0.4 ppm alone): 0% | Efficacy % ([5]; 2.0 ppm): 100% | Efficacy % ([5]; 2.0 ppm alone): 100% | Efficacy % ([5]; 10.0 ppm): 100% | Efficacy % ([5]; 10.0 ppm, alone): 100% | Efficacy % [14]: 0% | Efficacy % ([6]; single active at 0.08 ppm): 4% | Efficacy % ([6]; single active at 0.4 ppm): 0% | Efficacy % ([6]; single active at 10.0 ppm): 100% | Efficacy % ([7]; single substance, 0.08 ppm): 0% | Efficacy % ([7]; single substance, 0.4 ppm): 0% and 3% | Efficacy % ([7]; single substance, 2.0 ppm): 31% and 32% | Efficacy % ([7]; single substance, 10.0 ppm): 100% | Efficacy ([8]; 0.8 ppm): 0% | Efficacy ([8]; 4 ppm): 14% and 19% | Efficacy ([8]; 20 ppm): 100% | Efficacy ([9]; Table F10, 0.08 ppm alone): 0% | Efficacy ([9]; Table F10, 0.4 ppm alone): 46% | Efficacy ([9]; Table F10, 2.0 ppm alone): 100% | Efficacy ([9]; Table F10, 10.0 ppm alone): 100% | Efficacy ([9]; applied alone, 0.08 ppm): 6% | Efficacy ([9]; applied alone, 0.4 ppm): 21% | Efficacy ([9]; applied alone, 2.0 ppm): 100% | Efficacy ([9]; applied alone, 10.0 ppm): 100% | Efficacy ([9]; single active, 0.08 ppm): 2% | Efficacy ([9]; single active, 0.4 ppm): 0% | Efficacy ([9]; single active, 2.0 ppm): 46% | Efficacy ([9]; single active, 10.0 ppm): 100% | Efficacy ([15]; 0.8 ppm alone): 0% | Efficacy ([15]; 4 ppm alone): 78% | Efficacy ([15]; 20 ppm alone): 99% | Efficacy ([10]; single active compound, 0.8 ppm): 0% | Efficacy ([10]; single active compound, 4 ppm): 16% | Efficacy ([10]; single active compound, 20 ppm): 50% and 31% | Efficacy ([11]; 0.08 ppm): 0% | Efficacy ([11]; 0.4 ppm): 5% | Efficacy ([11]; 2.0 ppm): 37% | Efficacy ([11]; 10.0 ppm): 100% | Efficacy % ([16]; 0.08 ppm): 3% | Efficacy % ([16]; 0.4 ppm): 0% | Efficacy % ([16]; 2.0 ppm): 10% | Efficacy % ([16]; 10.0 ppm): 98% | Efficacy % ([13]; single active compound at 0.8 ppm): 0% | Efficacy % ([13]; single active compound at 4 ppm): 0% | Efficacy % ([13]; single active compound at 20 ppm): 100%
